Data on eight compounds can be found in ChEMBL document CHEMBL4145533, “6,7-Dimorpholinoalkoxy quinazoline derivatives as potent EGFR inhibitors with enhanced antiproliferative activities against tumor cells” (Eur J Med Chem, 2018).

The structures appear in SMILES notation.

For one test, the system named is HCC827. The test can be described thus: Antiproliferative activity against human HCC827 cells harboring EGFR E746-A750 del mutant after 72 hrs by MTT assay. Type of test: functional, cell-based. The conditions noted are these: HCC827, 72 h. On the technique in general: Tetrazolium assays rely on reduction of a dye to a coloured formazan, in cell work by metabolically active cells.

In the next test the test system is A-431. The test can be described thus: Antiproliferative activity against human A431 cells harboring wild type EGFR after 72 hrs by MTT assay. The conditions noted are these: A-431, 72 h. The format is functional, cell-based.
A further test relates to NCI-H1975. As to the kind of experiment: Antiproliferative activity against human NCI-H1975 cells harboring EGFR L858R/T790M double mutant after 72 hrs by MTT assay. The note with it: NCI-H1975, 72 h. Type of test: functional, cell-based.
For test [1], the system named is A549. As to the kind of experiment: Antiproliferative activity against human A549 cells harboring wild type EGFR/K-ras mutant after 72 hrs by MTT assay. The format is functional, cell-based. The conditions noted are these: A549, 72 h.
A further test concerns SW480. The test can be described thus: Antiproliferative activity against human SW480 cells harboring wild type EGFR after 72 hrs by MTT assay. Type of test: functional, cell-based. The note with it: SW480, 72 h.
For test [2], the system named is A549. The test can be described thus: Cell cycle arrest in human A549 cells assessed as accumulation at S phase at 15 uM after 48 hrs by propidium iodide satining based FACS analysis (reference value: 34.45%). Type of test: functional. In general terms: A flow cytometer gives signals particle by particle.
In test [3] the test system is A549. The test can be described thus: Induction of apoptosis in human A549 cells assessed as early apoptotic cells at 15 uM after 48 hrs by Annexin V-FITC/propidium iodide satining based FACS analysis (reference value: 2.78%). Type of test: functional.
Test [4] has as its system A549. As to the kind of experiment: Induction of apoptosis in human A549 cells assessed as late apoptotic cells at 15 uM after 48 hrs by Annexin V-FITC/propidium iodide satining based FACS analysis (reference value: 1.21%). Type of test: functional.
In test [5] the test system is A549. As to the kind of experiment: Cell cycle arrest in human A549 cells assessed as accumulation at G0/G1 phase at 15 uM after 48 hrs by propidium iodide satining based FACS analysis (reference value: 48.87%). Type of test: functional.
The test system of test [6] is A549. As to the kind of experiment: Induction of apoptosis in human A549 cells assessed as viable cells at 15 uM after 48 hrs by Annexin V-FITC/propidium iodide satining based FACS analysis (reference value: 95.87%). Type of test: functional. The conditions noted are these: A549, 48 h, read-out: Activity.
Test [7] deals with A549. The test can be described thus: Induction of apoptosis in human A549 cells assessed as necrotic cells at 15 uM after 48 hrs by Annexin V-FITC/propidium iodide satining based FACS analysis (reference value: 0.14%). Type of test: functional.
For test [8], the target named is Epidermal growth factor receptor (Homo sapiens, UniProt P00533, L858R/T790M). The test can be described thus: Inhibition of EGFR L858R/T790M double mutant (unknown origin) using ULight-poly GT as substrate preincubated for 30 mins followed by substrate addition measured after 1 hr by spectrophotometric method.
Chain of Epidermal growth factor receptor (Homo sapiens, UniProt P00533, L858R/T790M) (P00533 25-1210 T790M/L858R limits assumed): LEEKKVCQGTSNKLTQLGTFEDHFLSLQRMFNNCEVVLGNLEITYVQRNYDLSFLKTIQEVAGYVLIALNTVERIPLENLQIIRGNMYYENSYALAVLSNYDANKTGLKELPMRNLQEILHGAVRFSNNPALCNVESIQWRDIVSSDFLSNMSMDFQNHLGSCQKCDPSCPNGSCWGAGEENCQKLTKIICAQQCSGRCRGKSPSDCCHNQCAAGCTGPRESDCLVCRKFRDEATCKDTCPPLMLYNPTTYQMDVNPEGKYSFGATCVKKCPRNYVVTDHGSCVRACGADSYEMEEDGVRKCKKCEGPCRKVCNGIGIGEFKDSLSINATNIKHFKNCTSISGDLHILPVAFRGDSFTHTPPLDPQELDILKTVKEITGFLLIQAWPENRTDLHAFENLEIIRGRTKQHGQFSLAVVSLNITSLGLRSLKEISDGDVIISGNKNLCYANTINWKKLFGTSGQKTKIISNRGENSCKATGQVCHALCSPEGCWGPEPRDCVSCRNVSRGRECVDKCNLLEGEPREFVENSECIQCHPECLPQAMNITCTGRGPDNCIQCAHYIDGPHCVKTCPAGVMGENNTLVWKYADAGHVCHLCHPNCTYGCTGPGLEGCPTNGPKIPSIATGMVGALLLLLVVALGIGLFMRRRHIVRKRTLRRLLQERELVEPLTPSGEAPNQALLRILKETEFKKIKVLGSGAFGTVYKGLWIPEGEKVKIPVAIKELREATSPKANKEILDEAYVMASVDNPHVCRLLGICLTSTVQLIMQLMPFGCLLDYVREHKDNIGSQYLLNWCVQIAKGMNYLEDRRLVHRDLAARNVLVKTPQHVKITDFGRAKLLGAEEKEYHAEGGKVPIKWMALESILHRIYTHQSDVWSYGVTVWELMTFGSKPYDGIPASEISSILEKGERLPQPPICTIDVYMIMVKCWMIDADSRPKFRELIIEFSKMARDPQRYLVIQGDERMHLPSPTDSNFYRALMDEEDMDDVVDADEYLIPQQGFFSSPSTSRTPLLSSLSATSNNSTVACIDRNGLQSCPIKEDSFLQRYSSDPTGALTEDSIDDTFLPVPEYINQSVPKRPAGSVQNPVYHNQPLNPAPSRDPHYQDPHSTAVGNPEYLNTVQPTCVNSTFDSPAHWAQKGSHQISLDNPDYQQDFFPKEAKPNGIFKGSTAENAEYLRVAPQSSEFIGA
Test [9] has as its target Epidermal growth factor receptor (Homo sapiens, UniProt P00533, L858R). The test can be described thus: Inhibition of EGFR L858R mutant (unknown origin) using ULight-poly GT as substrate preincubated for 120 mins followed by substrate addition measured after 2 hrs by spectrophotometric method.
For test [10], the target named is Epidermal growth factor receptor (Homo sapiens, UniProt P00533, T790M). As to the kind of experiment: Inhibition of EGFR T790M mutant (unknown origin) preincubated for 10 mins followed by TK substrate-botion addition measured after 1 hr by spectrophotometric method.
Chain of Epidermal growth factor receptor (Homo sapiens, UniProt P00533, T790M) (P00533 25-1210 T790M limits assumed): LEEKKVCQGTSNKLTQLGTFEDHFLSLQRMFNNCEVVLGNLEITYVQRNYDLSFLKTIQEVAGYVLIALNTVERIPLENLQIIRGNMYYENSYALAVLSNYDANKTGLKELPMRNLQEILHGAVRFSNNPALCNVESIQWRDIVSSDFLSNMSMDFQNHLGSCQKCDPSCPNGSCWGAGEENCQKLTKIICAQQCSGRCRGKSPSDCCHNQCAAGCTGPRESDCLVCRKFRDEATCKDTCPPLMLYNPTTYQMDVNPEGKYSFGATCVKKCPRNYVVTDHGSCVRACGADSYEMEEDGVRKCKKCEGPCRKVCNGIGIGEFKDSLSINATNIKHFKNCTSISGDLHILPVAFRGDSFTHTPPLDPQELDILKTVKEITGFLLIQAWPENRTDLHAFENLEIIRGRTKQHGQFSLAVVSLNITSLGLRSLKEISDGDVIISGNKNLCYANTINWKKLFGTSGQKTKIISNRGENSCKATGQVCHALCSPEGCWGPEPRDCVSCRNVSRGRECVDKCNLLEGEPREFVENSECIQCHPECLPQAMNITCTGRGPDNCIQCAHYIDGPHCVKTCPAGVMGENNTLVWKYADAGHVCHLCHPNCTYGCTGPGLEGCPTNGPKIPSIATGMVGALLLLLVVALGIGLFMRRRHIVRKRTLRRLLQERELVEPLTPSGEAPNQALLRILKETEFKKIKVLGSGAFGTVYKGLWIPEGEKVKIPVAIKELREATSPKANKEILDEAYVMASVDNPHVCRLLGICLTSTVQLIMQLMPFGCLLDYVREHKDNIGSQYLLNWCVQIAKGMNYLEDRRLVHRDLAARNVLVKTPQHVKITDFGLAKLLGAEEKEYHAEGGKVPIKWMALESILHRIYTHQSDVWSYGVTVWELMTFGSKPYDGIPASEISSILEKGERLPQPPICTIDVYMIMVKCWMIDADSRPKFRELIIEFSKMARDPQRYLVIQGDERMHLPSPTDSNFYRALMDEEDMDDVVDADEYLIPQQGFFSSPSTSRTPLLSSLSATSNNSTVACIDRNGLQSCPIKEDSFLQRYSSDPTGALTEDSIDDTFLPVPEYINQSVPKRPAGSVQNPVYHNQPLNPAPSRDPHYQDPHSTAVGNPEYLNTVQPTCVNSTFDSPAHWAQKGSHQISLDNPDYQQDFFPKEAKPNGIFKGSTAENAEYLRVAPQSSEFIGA

Chain of Epidermal growth factor receptor (Homo sapiens, UniProt P00533, L858R) (P00533 25-1210 L858R limits assumed): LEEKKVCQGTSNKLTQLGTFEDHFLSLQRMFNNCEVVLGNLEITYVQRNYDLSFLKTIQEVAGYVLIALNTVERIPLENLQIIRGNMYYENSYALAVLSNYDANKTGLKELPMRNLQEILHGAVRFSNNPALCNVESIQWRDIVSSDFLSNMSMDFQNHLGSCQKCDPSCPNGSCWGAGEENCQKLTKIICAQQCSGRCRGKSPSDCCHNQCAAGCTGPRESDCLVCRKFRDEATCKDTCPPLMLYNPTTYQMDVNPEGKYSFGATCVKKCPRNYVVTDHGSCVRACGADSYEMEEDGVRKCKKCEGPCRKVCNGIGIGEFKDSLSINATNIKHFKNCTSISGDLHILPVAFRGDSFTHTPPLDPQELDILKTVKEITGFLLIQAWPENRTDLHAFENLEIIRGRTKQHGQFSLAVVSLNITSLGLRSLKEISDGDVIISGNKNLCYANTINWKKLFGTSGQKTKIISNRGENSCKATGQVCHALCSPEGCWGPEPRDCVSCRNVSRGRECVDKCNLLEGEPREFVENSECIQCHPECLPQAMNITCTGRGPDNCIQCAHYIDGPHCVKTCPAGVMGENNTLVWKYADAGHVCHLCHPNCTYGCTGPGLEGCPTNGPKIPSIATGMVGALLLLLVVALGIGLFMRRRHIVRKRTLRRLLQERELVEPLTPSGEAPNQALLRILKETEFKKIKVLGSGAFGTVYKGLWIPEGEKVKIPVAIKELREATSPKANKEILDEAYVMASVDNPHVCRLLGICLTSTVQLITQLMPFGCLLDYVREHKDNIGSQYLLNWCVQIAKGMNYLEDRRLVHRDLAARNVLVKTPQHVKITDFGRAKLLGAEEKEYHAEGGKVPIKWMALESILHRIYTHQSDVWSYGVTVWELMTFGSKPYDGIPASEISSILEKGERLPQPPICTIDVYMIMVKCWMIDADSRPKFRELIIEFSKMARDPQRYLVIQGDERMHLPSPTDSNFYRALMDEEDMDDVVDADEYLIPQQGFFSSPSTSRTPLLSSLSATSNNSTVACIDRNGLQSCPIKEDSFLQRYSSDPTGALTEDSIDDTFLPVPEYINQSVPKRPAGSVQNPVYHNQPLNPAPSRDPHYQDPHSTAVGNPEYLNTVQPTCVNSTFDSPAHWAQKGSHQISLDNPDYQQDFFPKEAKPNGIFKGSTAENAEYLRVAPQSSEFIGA

A word on the IC50: it is the point on the concentration scale where inhibition reaches its midpoint. As for `C#Cc1cccc(Nc2ncnc3cc(OCCN4CCOCC4)c(OCCN4CCOCC4)cc23)c1`, the IC50 was 0.05 µM with HCC827; 5.41 µM in the test with A-431; 23.1 µM in the test with NCI-H1975; 11.5 µM in the test on A549 [1]; 20.8 µM in the test with SW480.
For the compound `C/C=C/c1ccc(Nc2ncnc3cc(OCCN4CCOCC4)c(OCCN4CCOCC4)cc23)cc1`, the 50% inhibitory concentration (IC50) with HCC827 is 1.86 µM; in the test on A-431 it was 10.1 µM; with NCI-H1975, 89.3 µM; with A549 [1], 14.1 µM; in the test on SW480, 29.2 µM.
With `CS(=O)(=O)CCNCc1ccc(-c2ccc3ncnc(Nc4ccc(OCc5cccc(F)c5)c(Cl)c4)c3c2)o1` [LAPATINIB], the Activity in the test with A549 [2] turned out to be 23.89%; in the test on A549 [3] it was 4.56%; in the test on A549 [4], 6.27%; with A549 [5], 67.5%; in the test on A549 [7], 1.5%. For the same compound, the IC50 in the test on HCC827 came to 0.6 µM; with A-431 it was 4.8 µM; in the test on NCI-H1975, 12.7 µM; with A549 [1], 14.9 µM; with SW480, 12.6 µM. Moreover, in the test on A549 [6], the viability at 15 µM was found to be 87.7%.
As to `Fc1cccc(COc2ccc(Nc3ncnc4cc(OCCN5CCOCC5)c(OCCN5CCOCC5)cc34)cc2Cl)c1`, the 50% inhibitory concentration (IC50) in the test on HCC827 was 0.32 µM; with A-431 it was 3.62 µM; with NCI-H1975 it was 12.2 µM; with A549 [1], 5.81 µM; with SW480, 8.82 µM.
Turning to `C#Cc1cccc(Nc2ncnc3cc(OCCCN4CCOCC4)c(OCCCN4CCOCC4)cc23)c1`, the IC50 with HCC827 was found to be 0.0066 µM; with A-431, 1.56 µM; in the test with NCI-H1975, 3.1 µM; in the test on A549 [1], 3.97 µM; in the test with SW480 it was 5.39 µM.
For `C/C=C/c1ccc(Nc2ncnc3cc(OCCCN4CCOCC4)c(OCCCN4CCOCC4)cc23)cc1`, the half-inhibitory concentration (IC50) was over 2 µM in [8]; 0.235 µM in test [9]; 0.29 µM in the test with HCC827; 1.35 µM in the test on A-431; 5.53 µM in the test on NCI-H1975; over 1 µM in [10]. Also, the IC50 in the test with A549 [1] worked out at 8.83 µM; in the test with SW480, 6.08 µM.
Consider `Fc1ccc(Nc2ncnc3cc(OCCCN4CCOCC4)c(OCCCN4CCOCC4)cc23)cc1Cl`, for which the IC50 in the test on HCC827 is 0.0078 µM; with A-431 it was 2.01 µM; in the test on NCI-H1975, 4.45 µM; with A549 [1] it was 3.03 µM; in the test on SW480, 3.54 µM.
On the same counts, the results for `Fc1ccc(Nc2ncnc3cc(OCCN4CCOCC4)c(OCCN4CCOCC4)cc23)cc1Cl` are 0.05 µM, 10.4 µM, 20.4 µM, 7.91 µM and 16.6 µM.
